Here are results for 13 molecules from US9163003B2, “4-piperidinyl compounds for use as tankyrase inhibitors” (NOVARTIS AG, priority 2011, dated 2015).

Like-named read-outs stand apart in the source and are kept apart here. Bounds are passed on as bounds.

Experiment [1] deals with Non-small lung cancer ABC-1 cells. Briefly: Cellular proliferation assay, ABC-1 cells (CellTiter-Glo). Type of experiment: cell-based. To be noted: 3 days of compound treatment. As for the experimental part: Non-small lung cancer ABC-1 cells were plated at 5000 cells per well in 96-well plates and treated with 8 serial compound dilutions starting from 10 μM as the highest concentration. Viable cells were measured after 3 days of compound treatment using the CellTiter-Glo assay (Promega, G7570). Assay was performed following the manufacture protocol.

Another experiment deals with Human PARP1 (Homo sapiens (Human), UniProt P09874). Briefly: PARP1 autoparsylation biochemical assay, LC/MS detection of nicotinamide. To be noted: read-out: PARP1 IC50, 20 nM enzyme, 250 μM NAD+, 60 min room temperature.
Sequence of Human PARP1 (P09874 whole entry): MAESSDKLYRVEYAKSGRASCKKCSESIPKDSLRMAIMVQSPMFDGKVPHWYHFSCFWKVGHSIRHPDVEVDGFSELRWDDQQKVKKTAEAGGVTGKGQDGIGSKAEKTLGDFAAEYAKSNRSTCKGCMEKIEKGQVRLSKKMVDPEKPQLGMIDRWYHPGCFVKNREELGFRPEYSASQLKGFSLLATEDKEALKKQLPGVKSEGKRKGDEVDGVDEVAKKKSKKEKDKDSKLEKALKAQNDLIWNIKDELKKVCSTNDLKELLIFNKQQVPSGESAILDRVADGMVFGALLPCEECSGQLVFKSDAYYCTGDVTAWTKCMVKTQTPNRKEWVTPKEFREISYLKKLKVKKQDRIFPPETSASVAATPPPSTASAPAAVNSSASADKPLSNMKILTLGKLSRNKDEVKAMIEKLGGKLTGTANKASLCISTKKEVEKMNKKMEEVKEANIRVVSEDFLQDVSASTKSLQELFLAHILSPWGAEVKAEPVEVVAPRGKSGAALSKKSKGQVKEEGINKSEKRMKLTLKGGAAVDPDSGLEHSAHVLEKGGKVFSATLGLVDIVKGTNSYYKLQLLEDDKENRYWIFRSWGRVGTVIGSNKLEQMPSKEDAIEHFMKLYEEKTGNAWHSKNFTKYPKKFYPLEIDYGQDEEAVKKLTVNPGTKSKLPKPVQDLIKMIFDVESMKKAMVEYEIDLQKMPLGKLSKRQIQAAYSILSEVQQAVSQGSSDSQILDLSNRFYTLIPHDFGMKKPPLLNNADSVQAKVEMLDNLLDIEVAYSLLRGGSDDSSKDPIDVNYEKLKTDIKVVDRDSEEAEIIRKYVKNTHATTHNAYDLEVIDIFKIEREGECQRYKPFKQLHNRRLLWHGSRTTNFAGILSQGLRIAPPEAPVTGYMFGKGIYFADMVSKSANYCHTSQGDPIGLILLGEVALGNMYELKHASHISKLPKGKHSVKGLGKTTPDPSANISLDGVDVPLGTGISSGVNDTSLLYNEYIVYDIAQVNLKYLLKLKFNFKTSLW
For a further experiment, the target named is PARP2 (Mus musculus (Mouse), UniProt O88554). In words: PARP2 autoparsylation biochemical assay, LC/MS detection of nicotinamide. To be noted: read-out: PARP2 Ic50, 20 nM enzyme, 250 μM NAD+, 60 min room temperature.
Sequence of PARP2 (O88554 whole entry, the tested form may be a part): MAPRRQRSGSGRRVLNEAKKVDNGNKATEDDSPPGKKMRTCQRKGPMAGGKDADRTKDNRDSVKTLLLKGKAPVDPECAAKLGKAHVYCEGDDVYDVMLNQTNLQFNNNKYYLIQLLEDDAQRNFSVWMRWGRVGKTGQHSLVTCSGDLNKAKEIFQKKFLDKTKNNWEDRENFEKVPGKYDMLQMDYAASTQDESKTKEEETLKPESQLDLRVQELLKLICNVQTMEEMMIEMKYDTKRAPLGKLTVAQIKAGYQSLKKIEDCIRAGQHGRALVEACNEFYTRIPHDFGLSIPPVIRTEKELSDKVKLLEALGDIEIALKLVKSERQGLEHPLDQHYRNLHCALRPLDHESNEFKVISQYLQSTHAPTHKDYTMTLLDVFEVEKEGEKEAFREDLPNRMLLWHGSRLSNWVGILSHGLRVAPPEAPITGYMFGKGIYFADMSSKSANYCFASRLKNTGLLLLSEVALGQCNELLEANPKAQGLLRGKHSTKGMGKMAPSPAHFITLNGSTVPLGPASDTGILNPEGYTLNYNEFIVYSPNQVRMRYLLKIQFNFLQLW
Experiment [2] has as its target human tankyrase 1 PARP catalytic domain, TNKS1P (GST-tagged) (Homo sapiens (Human), UniProt O95271). In words: TNKS1 autoparsylation (AP) biochemical assay, LC/MS detection of nicotinamide. The note with it: 20 nM enzyme, 250 μM NAD+, 60 min room temperature. The procedure: The human tankyrase 1 PARP catalytic domain, TNKS1P, was cloned into a pDONR221 vector using the Invitrogen Gateway Technology. This entry clone was then subcloned into the destination vector pDEST20 to obtain the N-terminal Glutathione S-transferase (GST)-tagged fusion protein.
The autoparsylation activity of the TNKS 1/2 or PARP1/2 enzymes was measured by the liquid chromatography-mass spectrometry (LC/MS) detection of nicotinamide as readout. Compound activity in inhibiting the TNKS and PARP autoparsylation was evaluated by IC50 measurements.

The test system of the next experiment is Axin2 protein. Briefly: Cellular ELISA assay for stabilizing the Axin2 protein in SW480 cells. The class given is cell-based. The note with it: 24 hrs treatment, read-out: Axin AC50. The procedure: Compound activity in stabilizing the Axin2 protein was measured by Sandwich Enzyme-Linked Immuosorbent (ELISA) assay in the colorectal cell line SW480. 30,000 SW480 cells were seeded per well in 96-well plate and incubated overnight prior to compound treatment. Cells were then treated with compounds in 6-point dilution starting at 10 μM for 24 hrs. Cells were then washed with 100 μL of cold Phosphate Buffer Saline (PBS), and lysed in 125 μl of cold 1× lysis buffer (Cell Signaling Technology, 9803) supplemented with Protease inhibitor (Roche, 11836170) and Phosphatase inhibitors (Sigma, P2850, P5726). For the ELISA assay, anti Axin-2 capture antibody (Strategic Diagnostics) antibody was diluted to a concentration of 1 μg/ml (1:1000) in Carbonate Coating buffer, pH 9.2 (Sigma, C3041-50CAP). 100μ of the diluted anti Axin-2 capture antibody per well was then used to coat the 96-well ELISA plate (Thermo Electron Corp., MicroLite 1 flat bottom plate #7571) overnight at 4° C. Plates were then washed three times with 300 μl/well of wash solution, PBST20 (PBS+0.05% Tween), and blocked with 300 μl/well 1% BSA/PBS (BSA, Millipore Probumin #82-045-1) for 1.5 hours at room temperature while shaking gently. After blocking, plates were then washed three times with 300 μl/well of wash solution. 100 μL of prepared SW480 cell lysate was then added to each well and incubated at room temperature for 2 hours while shaking gently. After washing, 100 μL of Biotinylated anti-Axin2 antibody (CST, 2151) was added to each well and incubated room temperature for 2 hours. 100 μL of Streptavidin-HRP (R&D systems, DY998) diluted 1:200 in 1% BSA/PBS was then added in each well and incubate for 30 mins at R/T in the dark. Signal was detected by Chemiluminescence (Pierce SuperSignal ELISA Femto #3704), and measured on PerkinElmer Wallac 1420 plate reader.

Experiment [3] addresses tankyrase 2 protein PARP domain, TNKS2P (GST-tagged) (Homo sapiens (Human), UniProt Q9H2K2). Briefly: TNKS2 autoparsylation (AP) biochemical assay, LC/MS detection of nicotinamide. The note with it: 20 nM enzyme, 250 μM NAD+, 60 min room temperature.
In experiment [4] the test system is Wnt ligand-induced signaling. In words: Wnt-responsive Super-TOpFlash (STF) luciferase reporter gene assay in HEK293 cells. Type of experiment: cell-based. The note with it: Homo sapiens, Wnt3A condition medium induced. As for the experimental part: Compound activity in inhibiting Wnt ligand-induced signaling was measured using a Wnt-responsive Super-TOpFlash (STF) luciferase reporter gene assay in HEK293 cells. On day 1 of the assay, cells were plated at a density of 8000 cells per well of 384-well plate in 25 μl medium containing 5% fetal bovine serum (FBS). On the second day, […] condition medium (CM) produced from mouse L cells was added to the cells to induce Wnt signaling, followed by addition of 5 μL of compounds each well in 10-point serial dilution. On the third day, the luciferase activity was measured by the Bright-Glo™ Luciferase Assay System following manufacture's protocol (Promega, E2620). The Inhibition was calculated as: (Maximum Wnt-induced signaling−Sample)/(Maximum Wnt-induced signaling−Background)*100. “Maximum Wnt-induced signaling” is the STF signal level induced by 20% Wnt3A CM without compound; and “Background” is the STF signal level without the addition of Wnt3A CM or compound.
A general note: Reporter assays use an easily measured gene product as a stand-in for the process of interest.

Sequence of human tankyrase 1 PARP catalytic domain, TNKS1P (GST-tagged) (O95271 1112-1317): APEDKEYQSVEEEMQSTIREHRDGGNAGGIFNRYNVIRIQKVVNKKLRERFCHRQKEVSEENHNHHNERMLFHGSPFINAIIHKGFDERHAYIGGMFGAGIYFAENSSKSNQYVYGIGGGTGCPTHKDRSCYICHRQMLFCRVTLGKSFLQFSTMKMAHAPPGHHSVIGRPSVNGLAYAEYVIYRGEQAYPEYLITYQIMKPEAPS
Sequence of tankyrase 2 protein PARP domain, TNKS2P (GST-tagged) (Q9H2K2 959-1164): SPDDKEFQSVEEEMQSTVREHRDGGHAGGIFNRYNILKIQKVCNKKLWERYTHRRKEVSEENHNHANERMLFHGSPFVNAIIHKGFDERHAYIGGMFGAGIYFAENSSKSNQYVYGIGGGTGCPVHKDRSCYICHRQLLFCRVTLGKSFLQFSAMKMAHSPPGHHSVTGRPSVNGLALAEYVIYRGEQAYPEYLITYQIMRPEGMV

`COc1ccc(C(=O)C2CCN([C@@H]3CCN(CC(=O)Nc4nnc5n4CCS5)C3=O)CC2)cc1` (single isomer, unassigned) [Example 34]: the IC50 (usually the concentration at which inhibition is half-maximal) is 49 nM in experiment [1], > 19000 nM on Human PARP1, 6300 ± 700 nM on PARP2 and 38 ± 1 nM in experiment [2]. Further, the AC50 (as a rule, the midpoint of the concentration-response curve, whichever way the signal moves) with Axin2 protein was determined as 78 ± 6 nM.
Regarding `COc1ccc(C(=O)C2CCN(C3CCN(Cc4nc5c(c(=O)[nH]4)COCC5)C3=O)CC2)cc1` (stereo not shown) [Example 2, 2-{3-[4-(4-Methoxy-benzoyl)-piperidin-1-yl]-2-oxo-pyrrolidin-1-ylmethyl}-3,5,7,8-tetrahydro-pyrano[4,3-d]pyrimidin-4-one], the IC50 in experiment [3] was 15 ± 4 nM; in experiment [1] (Homo sapiens, 72 h), 30 ± 5 nM; at Human PARP1, 9300 ± 1800 nM; at PARP2 it was 5400 ± 400 nM; in experiment [2], 33 ± 7 nM; in experiment [4], 1.3 ± 0.8 nM. Besides, the AC50 with Axin2 protein (Homo sapiens) was found to be 31.3 ± 3.6 nM.
With `COc1ccc(C(=O)C2CCN([C@H]3CCN(Cc4nc5c(c(=O)[nH]4)COCC5)C3=O)CC2)cc1` [Example 3, 2-{(S)-3-[4-(4-Methoxy-benzoyl)-piperidin-1-yl]-2-oxo-pyrrolidin-1-ylmethyl}-3,5,7,8-tetrahydro-pyrano[4,3-d]pyrimidin-4-one], the IC50 in experiment [3] stood at 9.5 ± 0.7 nM; in experiment [1] (Homo sapiens, 72 h), 12 ± 3 nM; at Human PARP1, 21000 ± 8700 nM; at PARP2, 4800 ± 600 nM; in experiment [2], 12.8 ± 2.6 nM; in experiment [4] it was 1.1 ± 0.4 nM. The AC50 with Axin2 protein (Homo sapiens) came to 6.3 ± 1.3 nM.
With `COc1ccc(C(=O)C2CCN(C3CCN(Cc4nc5c(cnn5C)c(=O)[nH]4)C3=O)CC2)cc1` (stereo not shown) [Example 6, 6-{3-[4-(4-Methoxy-benzoyl)-piperidin-1-yl]-2-oxo-pyrrolidin-1-ylmethyl}-1-methyl-1,3a,5,7a-tetrahydro-pyrazolo[3,4-d]pyrimidin-4-one], the IC50 in experiment [3] is 25 ± 4 nM; in experiment [1] (Homo sapiens, 72 h), 43 nM; on Human PARP1, > 19000 nM; at PARP2, > 19000 nM; in experiment [2] it was 22 ± 4 nM; in experiment [4], 5.9 ± 1.5 nM. For the same molecule, the AC50 in the experiment with Axin2 protein (Homo sapiens) came out at 23 ± 3 nM.
Regarding `O=C(c1ccc(Cl)cc1)C1CCN(C2CCN(Cc3nc4c(c(=O)[nH]3)COCC4)C2=O)CC1` (stereo not shown) [Example 9, 2-{3-[4-(4-Chloro-benzoyl)-piperidin-1-yl]-2-oxo-pyrrolidin-1-ylmethyl}-3,5,7,8-tetrahydro-pyrano[4,3-d]pyrimidin-4-one], the IC50 in experiment [3] worked out at 23 ± 1 nM; in experiment [1] (Homo sapiens, 72 h) it was 60 nM; on Human PARP1, 16600 ± 4200 nM; on PARP2, 4620 ± 950 nM; in experiment [2], 30 ± 2 nM; in experiment [4], 3 ± 3 nM. Further, in the experiment with Axin2 protein (Homo sapiens), the AC50 came out at 52 ± 4 nM.
Regarding `O=C(c1ccc(F)cc1)C1CCN(C2CCN(Cc3nc4c(c(=O)[nH]3)COCC4)C2=O)CC1` (stereo not shown) [Example 10, 2-{3-[4-(4-Fluoro-benzoyl)-piperidin-1-yl]-2-oxo-pyrrolidin-1-ylmethyl}-3,5,7,8-tetrahydro-pyrano[4,3-d]pyrimidin-4-one], the IC50 was 6 ± 1 nM in experiment [3]; 291 nM in experiment [1] (Homo sapiens, 72 h); 23600 ± 2700 nM on Human PARP1; 9200 ± 2200 nM on PARP2; 27 ± 1 nM in experiment [2]; 10 ± 1 nM in experiment [4]. In addition, in the experiment with Axin2 protein (Homo sapiens), the AC50 came out at 257 ± 67 nM.
Take `O=C(c1ccc(F)cc1)C1CCN([C@H]2CCN(Cc3nc4c(c(=O)[nH]3)COCC4)C2=O)CC1` [Example 11, 2-{(S)-3-[4-(4-Fluoro-benzoyl)-piperidin-1-yl]-2-oxo-pyrrolidin-1-ylmethyl}-3,5,7,8-tetrahydro-pyrano[4,3-d]pyrimidin-4-one]: the IC50 stood at 17 ± 2 nM in experiment [3]; 301 nM in experiment [1] (Homo sapiens, 72 h); 37400 ± 300 nM on Human PARP1; 10200 ± 4200 nM at PARP2; 37 ± 5 nM in experiment [2]; 5 ± 5 nM in experiment [4]. In the experiment on Axin2 protein (Homo sapiens), the AC50 was 132 ± 22 nM.
Consider `COc1ccc(C(=O)C2CCN([C@H]3CCN(Cc4nc5c(c(=O)[nH]4)COCC5)C3=O)CC2)cc1C` [Example 13, 2-{(S)-3-[4-(4-Methoxy-3-methyl-benzoyl)-piperidin-1-yl]-2-oxo-pyrrolidin-1-ylmethyl}-3,5,7,8-tetrahydro-pyrano[4,3-d]pyrimidin-4-one], for which the IC50 was 3 ± 1 nM in experiment [3]; 3 nM in experiment [1] (Homo sapiens, 72 h); 24000 ± 3000 nM at Human PARP1; 4000 ± 1100 nM at PARP2; 6 ± 1 nM in experiment [2]; 1.2 ± 1 nM in experiment [4]. In the experiment with Axin2 protein (Homo sapiens), the AC50 turned out to be 2.1 ± 0.1 nM.
For the molecule `COc1ccc(C(=O)C2CCN(C3CCN(Cc4nc(C)cc(=O)[nH]4)C3=O)CC2)cc1` (stereo not shown) [Example 23, 2-{3-[4-(4-Methoxy-benzoyl)-piperidin-1-yl]-2-oxo-pyrrolidin-1-ylmethyl}-6-methyl-3H-pyrimidin-4-one], the IC50 in experiment [3] was found to be 137 ± 22 nM; in experiment [1] (Homo sapiens, 72 h) it was 489 nM; in experiment [2], 286 ± 5 nM; in experiment [4], 56 ± 33 nM. Moreover, in the experiment with Axin2 protein (Homo sapiens), the AC50 was found to be 227 ± 25 nM.
In the case of `COc1ccc(C(=O)C2CCN([C@@H]3CCN(Cc4nc5ccccc(=O)c5[nH]4)C3=O)CC2)cc1C` [Example 29, 2-{(R)-3-[4-(4-Methoxy-3-methyl-benzoyl)-piperidin-1-yl]-2-oxo-pyrrolidin-1-ylmethyl}-3H-cycloheptaimidazol-4-one], the IC50 came out at 112 nM in experiment [3]; 10 nM in experiment [1] (Homo sapiens, 72 h); 278 ± 50 nM in experiment [2]; 14 ± 4 nM in experiment [4]. Further, the AC50 with Axin2 protein (Homo sapiens) turned out to be 9 ± 1 nM.
Take `COc1ccc(C(=O)C2CCN([C@@H]3CCN(Cc4nc5ccccc(=O)c5[nH]4)C3=O)CC2)cc1` [Example 31, 2-{(R)-3-[4-(4-Methoxy-benzoyl)-piperidin-1-yl]-2-oxo-pyrrolidin-1-ylmethyl}-3H-cycloheptaimidazol-4-one]: the IC50 in experiment [1] (Homo sapiens, 72 h) worked out at 85 nM; at PARP2 it was 10100 ± 2600 nM; in experiment [2] it was 1080 ± 10 nM; in experiment [4], 65 ± 14 nM. Further, the AC50 in the experiment on Axin2 protein (Homo sapiens) worked out at 89 ± 2 nM.
On to `COc1ccc(C(=O)C2CCN(C3CCN(CC(=O)Nc4nnc5n4CCS5)C3=O)CC2)cc1` (stereo not shown) [Example 32, N-(5,6-dihydrothiazolo[2,3-c][1,2,4]triazol-3-yl)-2-(3-(4-(4-methoxybenzoyl)piperidin-1-yl)-2-oxopyrrolidin-1-yl)acetamide], for which the IC50 was 76 nM in experiment [1] (Homo sapiens, 72 h); > 19000 nM at Human PARP1; 5090 ± 120 nM at PARP2; 43 ± 1 nM in experiment [2]. The AC50 in the experiment on Axin2 protein (Homo sapiens) came out at 131 ± 8 nM.
For the molecule `COc1ccc(C(=O)C2CCN(C3CCN(CC(=O)Nc4nnc5ccccn45)C3=O)CC2)cc1` (stereo not shown) [Example 35, N-([1,2,4]triazolo[4,3-a]pyridin-3-yl)-2-(3-(4-(4-methoxybenzoyl)piperidin-1-yl)-2-oxopyrrolidin-1-yl)acetamide], the IC50 amounted to 636 ± 36 nM in experiment [3]; 2630 nM in experiment [1] (Homo sapiens, 72 h); 2470 ± 30 nM in experiment [2]; 940 ± 70 nM in experiment [4]. Also, in the experiment with Axin2 protein (Homo sapiens), the AC50 was found to be 1890 ± 160 nM.
